From article PMC5218821 (Journal of ocular biology, 2016)

Target: T1, soluble epoxide hydrolase (sEH) (Oryctolagus cuniculus, UniProt A0A5F9CRP6)
T1 construct: gene ADAM2
T1 sequence (A0A5F9CRP6 1-555): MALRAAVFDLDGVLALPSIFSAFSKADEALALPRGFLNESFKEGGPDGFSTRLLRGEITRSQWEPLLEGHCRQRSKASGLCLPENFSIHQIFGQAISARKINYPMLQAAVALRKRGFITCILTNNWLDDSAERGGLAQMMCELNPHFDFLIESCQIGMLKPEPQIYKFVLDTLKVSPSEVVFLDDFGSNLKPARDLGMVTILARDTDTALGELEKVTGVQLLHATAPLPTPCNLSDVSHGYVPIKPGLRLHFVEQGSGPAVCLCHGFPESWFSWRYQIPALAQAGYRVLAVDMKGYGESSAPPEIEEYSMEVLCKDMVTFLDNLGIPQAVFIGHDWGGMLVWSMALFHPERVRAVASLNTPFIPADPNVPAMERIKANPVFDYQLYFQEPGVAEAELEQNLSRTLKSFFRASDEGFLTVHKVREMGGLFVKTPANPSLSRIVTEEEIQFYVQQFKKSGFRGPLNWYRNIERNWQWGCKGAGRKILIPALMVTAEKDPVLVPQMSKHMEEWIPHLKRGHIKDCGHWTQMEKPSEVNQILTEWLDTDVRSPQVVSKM
Experiment: biochemical

- IC50: 88 nM
SMILES: CS(=O)(=O)N1CCC(NC(=O)Nc2ccc(OC(F)(F)F)cc2)CC1 [UC1709, TUPS]
